Data on twelve compounds can be found in PubChem BioAssay (NCI).

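Five compound concentrations were applied to cells in 96-well plates for 48 hours; endpoints were derived by simple linear interpolation of the resulting dose-response curve. TGI denotes the concentration required for complete inhibition of growth.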

Some test systems named below: RPMI-8226 leukemia; HOP-62 NSCLC; HCT-15 colon; BT-549 breast; T-47D breast; U251 CNS; OVCAR-4 ovarian; UACC-62 melanoma; SF-268 CNS; NCI-H460 lung.
Experiment in all cases: inhibition of tumour cell growth, NCI panel, 48 h

As for `CCOc1cc(NC(C)=O)ccc1C(=O)NN1C(=O)/C(=C/c2ccc(Cl)cc2)N=C1c1ccccc1`, the TGI with RPMI-8226 leukemia was more than 100 µM; in the test on HOP-62 NSCLC it was more than 100 µM; in the test on HCT-15 colon, more than 100 µM; with BT-549 breast it was more than 100 µM; with T-47D breast it was 77.1 µM; with U251 CNS it was more than 100 µM. The same compound had a TGI in the test with OVCAR-4 ovarian of more than 100 µM.
With `CC(=O)OC(C(=O)NNC(=O)OC(C)(C)C)c1ccccc1` (centres undefined), the TGI in the test on RPMI-8226 leukemia, in the test on HOP-62 NSCLC, with HCT-15 colon, with BT-549 breast, in the test on UACC-62 melanoma and in the test with T-47D breast was more than 100 µM each time. The TGI with SF-268 CNS, in the test on NCI-H460 lung and in the test on U251 CNS was more than 100 µM in each case.
Regarding `CC(=O)OCC1OC(Sc2nc(-c3ccccc3)c(C#N)c(=O)n2C2OC(COC(C)=O)C(OC(C)=O)C(OC(C)=O)C2OC(C)=O)C(OC(C)=O)C(OC(C)=O)C1OC(C)=O` (centres undefined), the TGI with RPMI-8226 leukemia, with HOP-62 NSCLC, with HCT-15 colon, in the test on BT-549 breast, in the test with UACC-62 melanoma and in the test on T-47D breast was more than 100 µM in each case. In addition, the TGI in the test with SF-268 CNS, in the test on NCI-H460 lung and with U251 CNS was more than 100 µM throughout.
Regarding `CCOC(=O)c1nc2ccccc2nc1Oc1ccc(F)cc1`, the TGI in the test with RPMI-8226 leukemia, in the test with HOP-62 NSCLC, with HCT-15 colon, in the test on BT-549 breast, in the test on UACC-62 melanoma and with T-47D breast was more than 100 µM each time. The TGI in the test with SF-268 CNS, in the test with NCI-H460 lung and in the test with U251 CNS was more than 100 µM in each case.
In the case of `COC(=O)C#CC1(O)C=CC(=O)C=C1`, the TGI in the test with RPMI-8226 leukemia amounted to 2.67 µM; with HOP-62 NSCLC, 15.7 µM; with HCT-15 colon, 4.32 µM; in the test on BT-549 breast, 3.42 µM; in the test on UACC-62 melanoma, 2.64 µM; in the test on T-47D breast, 3.74 µM. Besides, the values for the TGI in the test with SF-268 CNS, in the test on NCI-H460 lung and in the test on OVCAR-4 ovarian were 3.18 µM, 13.9 µM and 17 µM, respectively.
As for `O=[N+]([O-])c1cccc(-c2ccc([C@H]3CC(c4ccc(Cl)cc4)=NN3)o2)c1`, the TGI stood at 45.6 µM in the test on RPMI-8226 leukemia; 57.9 µM in the test on HOP-62 NSCLC; 40.3 µM with HCT-15 colon; 74.9 µM with BT-549 breast; 49.1 µM in the test with UACC-62 melanoma; 41.7 µM in the test with T-47D breast. The TGI with SF-268 CNS is more than 100 µM; in the test on OVCAR-4 ovarian, 68.6 µM.
For `COc1ccc2c(c1)SC1=Nc3sc4cc(OC)ccc4[n+]3CN12`, the TGI is 88.4 µM in the test with RPMI-8226 leukemia; more than 100 µM in the test with HOP-62 NSCLC; more than 100 µM with HCT-15 colon; more than 100 µM with BT-549 breast; 42.4 µM in the test with UACC-62 melanoma; 38.3 µM in the test on T-47D breast. Moreover, the TGI in the test on SF-268 CNS is 28.5 µM; with NCI-H460 lung it was 72.8 µM; in the test with U251 CNS, 63.6 µM.
`COc1ccc(CCN2C(=O)C(=O)C(C(=O)c3ccccc3)C2c2ccccc2)cc1OC` (centres undefined): the TGI in the test with RPMI-8226 leukemia, with HOP-62 NSCLC, with HCT-15 colon, with BT-549 breast, in the test on UACC-62 melanoma and in the test on T-47D breast was more than 100 µM in each case. In addition, the TGI in the test on SF-268 CNS, in the test on NCI-H460 lung and with U251 CNS was more than 100 µM each time.
As to `COCc1nc(C#N)c(N)o1`, the TGI with RPMI-8226 leukemia, with HOP-62 NSCLC, in the test on HCT-15 colon, in the test on BT-549 breast, in the test with UACC-62 melanoma and in the test on T-47D breast was more than 10 µM throughout. The TGI with SF-268 CNS, in the test on NCI-H460 lung and in the test with OVCAR-4 ovarian was more than 10 µM each time.
Turning to `CC(C(=O)NCNC(=O)c1ccccc1)C(=O)NCc1ccccc1` (centres undefined), the TGI with RPMI-8226 leukemia, with HCT-15 colon, in the test with BT-549 breast, in the test with UACC-62 melanoma, with T-47D breast and with SF-268 CNS was more than 100 µM each time. The TGI in the test on NCI-H460 lung and in the test with U251 CNS was more than 100 µM throughout.
Consider `CC(=O)OCC1OC(NC(=S)Nn2c(-c3ccccc3)nc3ccccc3c2=O)C(OC(C)=O)C(OC(C)=O)C1OC(C)=O` (centres undefined), for which the TGI with RPMI-8226 leukemia was more than 100 µM; in the test with HOP-62 NSCLC, more than 100 µM; with HCT-15 colon, more than 100 µM; in the test on BT-549 breast it was more than 100 µM; in the test with UACC-62 melanoma, more than 100 µM; in the test with T-47D breast it was 60.2 µM. Moreover, the TGI with SF-268 CNS, in the test on NCI-H460 lung and in the test on U251 CNS was more than 100 µM in each case.
With `C/C(=C\COP(=O)(O)CP(=O)(O)O)CC/C=C(\C)CNc1ccccc1`, the TGI with RPMI-8226 leukemia, with HOP-62 NSCLC, in the test on HCT-15 colon, with BT-549 breast, with UACC-62 melanoma and with T-47D breast was more than 100 µM in each case. Moreover, the TGI with SF-268 CNS, with NCI-H460 lung and with U251 CNS was more than 100 µM each time.
